Structures can show the parent of a compound that is named as a salt.
Legend:
[1] = system: TNF-α production by human monocyte strain THP-1 cells stimulated with LPS; assay: Inhibition of LPS-induced TNF-α production in THP-1 cells (ELISA); assay type: cell-based; conditions: compound 10^−5M, THP-1 cells 10^6 cells/ml, LPS 2 μg/ml, 37° C., two hours; for inhibition at 10 µM: Homo sapiens, 2 h, read-out: Rate of Inhibition (%) of TNF-α production
Protocol: Each candidate compound was inspected for the effect of inhibiting TNF-α production induced by the stimulation with lipopolysaccharide (LPS), by an in vitro test according to the method proposed by McGeehan et al. (Nature, 1994, 370:558-561).
The test (assay) was carried out by determining the amount of TNF-α produced by the human monocyte strain THP-1 cells induced by the stimulation with LPS.
The culture medium used in this test was RPMI 1640 culture medium supplemented wiTNFetal calf serum (10%), L-glutamine (2 mM), 2-mercaptoethanol (50 μM), penicillin (50 units/ml) and streptomycin (50 μg/ml).
Regarding the cells, the human monocyte strain THP-1 cells cultivated in the foregoing culture medium were centrifuged at 100 xg for 5 minutes to remove the supernatant and then again suspended in a fresh culture medium prior to the practical use. The LPS used herein was derived from S. Typhimurium and this was dissolved in purified water and then diluted with the culture medium prior to use. Each compound to be tested (candidate compound) was dissolved in dimethyl sulfoxide (DMSO) and diluted with the culture medium prior to the practical use.
The cells (10^6 cells/ml) prepared according to the foregoing method were admixed with the LPS (2 μg/ml) and a compound to be tested (10^−5M), the cells were incubated at 37° C. for two hours and then centrifuged at 1000 xg for 5 minutes. The resulting supernatant of the culture medium was inspected for the level of TNF-α using the human TNF-α-specific ELISA kit. In this connection, it was confirmed that the supernatant obtained by cultivating the cells in the culture medium free of any LPS (control) never included any TNF-α.
The rate of the TNF-α production inhibitory effect observed for each candidate compound was determined according to the following equation:
Rate of Inhibition (%)=100×(A−B)/A
Wherein A is the level of TNF-α detected in the supernatant obtained from the culture medium free of any candidate compound and B is the level of TNF-α detected in the supernatant obtained from the culture medium containing a candidate compound.

## CC(C)CCN(CCN)C(=O)N[C@H](CSSC[C@H](Cc1ccccc1)NC(=O)N(CCN)CCC(C)C)Cc1ccccc1 (as salt: hydrochloride) [Compound 8-1, Bis[(2S)-2-[3-(2-aminoethyl)-3-isopentylureido]-3-phenylpropane] Disulfide di-hydrochloride]
other
  melting point: 100 °C (dec.)

## CC(=O)SCCN(CCc1ccccc1)C(=O)N[C@@H](Cc1ccccc1)CN(C)C [Compound 6-3, 1-[2-(Acetylthio)ethyl]-3-[(1S)-1-benzyl-2-(dimethylamino)ethyl]-1-phenethyl urea]
[1]
  inhibition at 10 µM: 83%

## CC(=O)SC[C@H](Cc1ccccc1)NC(=O)N(CCC(C)C)CCN(C)C [Compound 6-8, 1-[(1S)-2-(Acetylthio)-1-benzylethyl]-3-[2-(dimethylamino)ethyl]-3-isopentyl urea]
[1]
  inhibition at 10 µM: 60%

## CC(=O)SC[C@H](Cc1ccc(-c2ccccc2)cc1)NC(=O)N(CCC(C)C)CCN(C)C [Compound 6-11, 1-[(1S)-2-(Acetylthio)-1-[(4-biphenylyl)methyl]ethyl]-3-[2-(dimethylamino)-ethyl]-3-isopentyl urea]
[1]
  inhibition at 10 µM: 76%

## CC(C)CCN(CCN)C(=O)N[C@H](CSSC[C@H](Cc1ccccc1)NC(=O)N(CCN)CCC(C)C)Cc1ccccc1 [Compound 8-1, Bis[(2S)-2-[3-(2-aminoethyl)-3-isopentylureido]-3-phenylpropane] Disulfide di-hydrochloride]
[1]
  inhibition at 10 µM: 81%

## CC(C)CCN(CCN)C(=O)N[C@H](CSSC[C@H](Cc1ccc(-c2ccccc2)cc1)NC(=O)N(CCN)CCC(C)C)Cc1ccc(-c2ccccc2)cc1.Cl.Cl [Compound 8-2, Bis[(2S)-2-[3-(2-aminoethyl)-3-isopentylureido]-3-(4-biphenylyl)propane]-disulfide di-hydrochloride]
[1]
  Rate of Inhibition (%) of TNF-α production: 66%
